3 compounds from article PMC9820763, “The Functional Characterization of Carboxylesterases Involved in the Degradation of Volatile Esters Produced in Strawberry Fruits” (International Journal of Molecular Sciences, 2022) can be followed below.

Molecules are shown by their SMILES.

In general, Km refers to the concentration of substrate that gives half-maximal velocity.

The test system of one test is T1, rFaCXE2 (FaCXE2).
T1 construct: fusion protein about 35-40 kDa; cloned from strawberry green fruit cDNA
Description: GC-MS of alcohol product, double-reciprocal plot. The following applies: Tris-HCl 100 mM, pH 7.5, 30 °C. It is filed as biochemical, Fragaria x ananassa. An excerpt:
GC-MS of alcohol product, double-reciprocal plot on rFaCXE2 (FaCXE2)

The test system of a further test is T2, rFaCXE3 (FaCXE3).
T2 construct: fusion protein about 35-40 kDa; cloned from strawberry green fruit cDNA
Description: GC-MS of alcohol product, double-reciprocal plot. It counts as biochemical, Fragaria x ananassa. As to conditions: Tris-HCl 100 mM, pH 7.5, 30 °C. An excerpt:
GC-MS of alcohol product, double-reciprocal plot on rFaCXE3 (FaCXE3)

Regarding `CCC/C=C/COC(C)=O` [E-2-Hexenyl acetate], the Km with rFaCXE2 (FaCXE2) was determined as 1040 ± 50 µM; in the test with rFaCXE3 (FaCXE3), 980 ± 110 µM.
In the case of `CCCCCCOC(C)=O` [Hexyl acetate], the Km in the test with rFaCXE2 (FaCXE2) worked out at 10900 ± 840 µM; with rFaCXE3 (FaCXE3), 840 ± 70 µM.
The like results for `CC/C=C\CCOC(C)=O` [Z-3-Hexenyl acetate] were, in that order, 2500 ± 130 µM and 950 ± 50 µM.
